Test results reported in patent US5434141A, “Medicament for the treatment of hyperlipidaemia and/or atherosclerosis” (Steigerwald Arzneimittelwerk GmbH, priority 1990, dated 1995).
Entries after “also recorded” stand apart in the source; their conditions may differ. Like-named read-outs stand apart in the source and are kept apart here.

Legend:
[1] = Experiment 1: serum cholesterol and lipid concentration in hamsters fed a lipidaemia diet, 4 weeks; format: in vivo, male golden hamsters; settings: for hypocholesterolaemic / lipid-lowering action, in words: serum
Protocol: (§1) 3 Groups each of 20 male golden hamsters were fed for 4 weeks with a lipidaemia diet (hamster maintenance diet and 2% cholesterol).
(§2) The dose taken was between 4 and 5 g/kg of body weight and day.
(§3) After 4 weeks the animals were sacrificed and the serum and hepatic lipid concentration was measured. The results of the analyses are compiled in Tables 1, 2 and 3.

[2] = Experiment 1: hepatic lipid concentration in hamsters fed a lipidaemia diet, 4 weeks; format: in vivo, male golden hamsters; settings: four weeks
Protocol: as §1, §2, §3

[3] = Tolerability / toxic effects (general statement); settings: in vivo
[4] = in vivo; cited from earlier work
[5] = by contrast with pectin; cited from earlier work
[6] = Protocol: (§4) 3 Groups each of 20 male golden hamsters were fed for 4 weeks with a lipidaemia diet (hamster maintenance diet and 2% cholesterol). The feed in the two treated groups was additionally supplemented with in each case 5% galacturonic acid or DEAE-polygalacturonic acid (DEAE=diethylaminoethyl).
(§5) 3 Groups each of 20 male golden hamsters were treated for 4 weeks like the animals described in 1. […] Group 1 was the lipidaemia control.

[7] = Experiment 2: hepatic lipid concentration in hamsters fed a lipidaemia diet, 4 weeks; format: in vivo, male golden hamsters; settings: four weeks
Protocol: as §4, §5

[8] = mean, n = 20/group, 5% in feed, four weeks
[9] = mean, n = 20/group, 5% in feed, four weeks, * p ≤ 0.05
[10] = significant, p≤0.05, four weeks
[11] = mean, n = 20/group, 5% in feed, * p ≤ 0.05

Compound: O=C(O)[C@H]1O[C@H](O)[C@H](O)[C@@H](O)[C@H]1O [galacturonic acid, α-D-galacturonic acid]
- Free cholesterol in serum, D = difference from the control group ([1]; 5% in feed, four weeks): -19%
- HDL-cholesterol in serum, D = difference from the control group ([1]; 5% in feed, four weeks): -20%
- LDL-cholesterol in serum, D = difference from the control group ([1]; 5% in feed, four weeks): -23%
- Phospholipids in serum, D = difference from the control group ([1]; 5% in feed, four weeks): -17%
- Total cholesterol in serum, D = difference from the control group ([1]; 5% in feed, four weeks): -20%
- Total lipids in serum, D = difference from the control group ([1]; 5% in feed, four weeks): -18%
- Triglycerides in serum, D = difference from the control group ([1]; 5% in feed, four weeks): +7%
- VLDL + LDL-cholesterol in serum, D = difference from the control group ([1]; 5% in feed, four weeks): -20%
- VLDL-cholesterol in serum, D = difference from the control group ([1]; 5% in feed, four weeks): -14%
- Phospholipids concentration in serum [1, 8]: 322 mg/dL
- Total lipids concentration in serum [1, 8]: 1060 mg/dL
- Triglycerides concentration in serum [1, 8]: 216 mg/dL
- Free cholesterol concentration in serum [1, 9]: 96 mg/dL
- HDL-cholesterol concentration in serum [1, 9]: 118 mg/dL
- LDL-cholesterol concentration in serum [1, 9]: 117 mg/dL
- Total cholesterol concentration in serum [1, 9]: 271 mg/dL
- VLDL + LDL-cholesterol concentration in serum [1, 9]: 153 mg/dL
- VLDL-cholesterol concentration in serum [1, 9]: 36 mg/dL
- hypocholesterolaemic / lipid-lowering action, in words [1]: significant decrease in the cholesterol and lipid concentrations; also recorded: has a hypocholesterolaemic action
- hypocholesterolaemic / lipid-lowering action, in words ([1]; listed as α-D-galacturonic acid): shows a hypocholesterolaemic action in the serum
- lowering of serum HDL-cholesterol ([1]; significant, four weeks): 20%
- lowering of serum LDL-cholesterol ([1]; significant, four weeks): 23%
- lowering of serum VLDL- plus LDL-cholesterol ([1]; significant, four weeks): 20%
- lowering of serum free cholesterol ([1]; significant, four weeks): 19%
- lowering of serum phospholipid concentration ([1]; significant, four weeks): 17%
- lowering of serum total lipid concentration ([1]; significant, four weeks): 18%
- lowering of serum concentration of total cholesterol [1, 10]: 20%
- Hepatic cholesterol, D = difference from the control group ([2]; 5% in feed): -9%
- Hepatic total lipids, D = difference from the control group ([2]; 5% in feed): -34%
- Hepatic cholesterol concentration [2, 11]: 27 mg/g wet weight
- Hepatic total lipids concentration [2, 11]: 111 mg/g wet weight
- reduction of total lipid concentration in the liver ([2]; significant): 34%
- tolerability [3]: as a rule well tolerated
- toxic effects [4]: No toxic effects are known
- solubility in water [5]: readily soluble in water

Compound: polygalacturonic acid
- Free cholesterol in serum, D = difference from the control group ([6]; 5% in feed, four weeks): -32%
- HDL-cholesterol in serum, D = difference from the control group ([6]; 5% in feed, four weeks): -15%
- LDL-cholesterol in serum, D = difference from the control group ([6]; 5% in feed, four weeks): -18%
- Phospholipids in serum, D = difference from the control group ([6]; 5% in feed, four weeks): -19%
- Total cholesterol in serum, D = difference from the control group ([6]; 5% in feed, four weeks): -13%
- Total lipids in serum, D = difference from the control group ([6]; 5% in feed, four weeks): -14%
- VLDL + LDL-cholesterol in serum, D = difference from the control group ([6]; 5% in feed, four weeks): -8%
- VLDL-cholesterol in serum, D = difference from the control group ([6]; 5% in feed, four weeks): -4%
- Phospholipids concentration in serum [6, 8]: 385 mg/dL
- Total lipids concentration in serum [6, 8]: 1338 mg/dL
- Triglycerides concentration in serum [6, 8]: 269 mg/dL
- Free cholesterol concentration in serum [6, 9]: 80 mg/dL
- HDL-cholesterol concentration in serum [6, 9]: 149 mg/dL
- LDL-cholesterol concentration in serum [6, 9]: 163 mg/dL
- Total cholesterol concentration in serum [6, 9]: 361 mg/dL
- VLDL + LDL-cholesterol concentration in serum [6, 9]: 212 mg/dL
- VLDL-cholesterol concentration in serum [6, 9]: 48 mg/dL
- lowering of serum phospholipid concentration ([6]; significant, four weeks): 19%
- lowering of serum total lipid concentration ([6]; significant, four weeks): 14%
- lowering of serum HDL-cholesterol [6, 10]: 15%
- lowering of serum free cholesterol [6, 10]: 32%
- lowering of serum total cholesterol [6, 10]: 13%
- Hepatic cholesterol, D = difference from the control group ([7]; 5% in feed): -26%
- Hepatic total lipids, D = difference from the control group ([7]; 5% in feed): -25%
- Hepatic cholesterol concentration [7, 11]: 22.1 mg/g wet weight
- Hepatic total lipids concentration [7, 11]: 67.4 mg/g wet weight
- lowering of hepatic cholesterol concentration ([7]; significant): 26%
- lowering of hepatic total lipid concentration ([7]; significant): 25%
